One data set has as its target T1, human 5HT2C receptors (Homo sapiens, UniProt P28335).
T1 construct: expressed in transfected cells; host or cells: human embryo kidney cells (membranes)
T1 sequence (P28335 33-458): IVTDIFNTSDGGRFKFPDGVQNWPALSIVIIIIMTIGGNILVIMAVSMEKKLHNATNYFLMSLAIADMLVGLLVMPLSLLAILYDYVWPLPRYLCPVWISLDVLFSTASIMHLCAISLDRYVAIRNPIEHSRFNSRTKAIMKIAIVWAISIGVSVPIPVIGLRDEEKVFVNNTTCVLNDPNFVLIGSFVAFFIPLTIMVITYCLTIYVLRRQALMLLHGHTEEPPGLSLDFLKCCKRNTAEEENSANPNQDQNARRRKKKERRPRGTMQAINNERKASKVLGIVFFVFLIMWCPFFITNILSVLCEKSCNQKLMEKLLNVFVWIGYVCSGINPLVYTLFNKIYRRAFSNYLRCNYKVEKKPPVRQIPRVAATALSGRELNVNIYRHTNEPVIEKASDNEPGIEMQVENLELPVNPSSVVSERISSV
The experiment in a line: h5-HT2C receptor radioligand binding ([3H]Mesulergine). The conditions noted are these: pKi reported on a scale of 1 through 5. A digest of the protocol: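 Test compound affinity was derived from concentration-dependent displacement of fixed [3H]mesulergine at equilibrium, after subtracting nonspecific binding measured with a reference blocker. Bound and free radioligand were separated by filtration of tissue or plasma-membrane preparations.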

Another data set addresses T2, human M3 receptors (Homo sapiens, UniProt P20309).
T2 construct: expressed in transfected cells; host or cells: Chinese hamster ovary cells (membranes)
The experiment in a line: hM3 receptor radioligand binding ([3H]NMS). The conditions noted are these: pKi reported on a scale of 1 through 5; read-out: M3 (pKi) (converted). In short, it runs like this: (§1)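 Test compounds at varying concentrations displaced a single concentration of radioligand from tissues or membrane fractions expressing each receptor, incubated to equilibrium, then filtered. Specific binding was taken as total minus binding in the presence of a reference blocker, and the corrected concentration–response gave receptor binding.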

Data set [1] in a line: Metabolism in pooled human liver microsomes. The format is in vitro ADME. The conditions noted are these: for HLMs Enzyme: enzyme type metabolising the compound in HLMs (with/without NADPH); for half-life: pH 7.4, pooled human liver microsomes, disappearance of parent, read-out: HLMs t1/2. As for the experimental part: Compounds were incubated in pooled human liver microsomes (HLMs) in the presence or absence of an NADPH-generating system. NADPH is required for the activity of cytochrome P450 (CYP) and other oxidative enzymes present in HLMs, but not for esterase activity. An additional incubation was carried out in the absence of HLM to assess compound stability. The disappearance of parent and the appearance of the corresponding acid metabolite were monitored over the time course of the incubations using LC-MS/MS.
A stock solution (20 mM) of each proprietary compound in DMSO was prepared and stored at −20° C. until needed. A working stock solution (0.2 mM) was prepared for each proprietary compound by adding an aliquot of the stock solution (10 μL) to acetonitrile (990 μL).
An aliquot of the HLM solution was removed from the −80° C. freezer and placed on ice. Tris Buffer (50 mM, pH 7.4) containing MgCl2 (hexahydrate, 5 mM) was pre-incubated in a 37° C. water bath. A set of Eppendorf microfuge tubes (1.5 mL) was appropriately labeled. To each tube was added Tris buffer with or without the NADPH generating system. An aliquot of pooled HLMs was added to all the incubations except those that were the buffer control.
Tubes were preincubated for 5 min in a shaking incubator bath (37° C., 900 rpm) and the reaction was initiated by adding an aliquot of the proprietary working solution (5 μL). The additions were timed carefully in order to coordinate the sample collections below. A small aliquot (50 μL) was removed at […] and delivered to the respective tubes containing dextrorphan (100 μL of 0.5 μg/mL solution) dissolved in methanol or acetonitrile. The samples were centrifuged at 14000 g for 15 minutes at 4° C. The supernatant was transferred to clean labeled HPLC injection vials and stored at −80° C. until analyzed. An aliquot of the supernatant (25 μL) was added to water (75 μL), mixed and injected onto the LC-MS/MS system for analysis. Results for some compounds of the invention can be found below in the table in Example 20.
Background: Liver microsomes are a subcellular fraction often used to study metabolism.

The subject of a further data set is pig liver esterase. The experiment in a line: Metabolism by pig liver esterase with and without human plasma proteins. The data set is classed as in vitro ADME. As to the method: The esterase-mediated metabolism of these compounds was studied using commercially available pig liver esterase in the presence and absence of human plasma proteins. The disappearance of parent was monitored over the time course of the incubations using a LC-UV detection system.
A stock solution and working stock solution was prepared for each proprietary compound as described for the human liver microsomal incubations. Working solutions of pig liver esterase in potassium phosphate buffer (10 mM, pH 7.4) and pig liver esterase in human plasma protein were prepared by dissolving pig liver esterase (2.51 mg) in the phosphate buffer or plasma protein solutions, respectively.
A set of three Eppendorf microfuge tubes (1.5 mL) was appropriately labeled. To each tube was added 1.5 mL of phosphate buffer, pig liver esterase in buffer, or pig liver esterase in human plasma protein solution. These solutions were pre-incubated (37° C., 900 rpm) and the reactions were initiated by adding an aliquot (37.5 μL) of the working solution of proprietary compound to each tube. An aliquot (100 μL) from each tube was removed at time 0, 5, 30, 60, and 120 min and added to a tube containing acetonitrile (200 μL) to stop the reaction.
The samples were centrifuged at 14000 g for 15 minutes at 4° C. The supernatant was transferred to clean labeled HPLC injection vials and stored at −80° C. until analyzed. An aliquot of the supernatant (25 μL) was injected onto the LC-UV system for analysis.

The next data set concerns the target T3, human 5HT7 receptors (Homo sapiens, UniProt P34969).
T3 construct: expressed in transfected cells; host or cells: Chinese hamster ovary cells (membranes)
The experiment in a line: h5-HT7 receptor radioligand binding ([3H]5-CT). The conditions noted are these: pKi reported on a scale of 1 through 5; read-out: 5HT7 (pKi) (converted). In short, it runs like this:
as §1

Where [2] appears, read: pig liver esterase in potassium phosphate buffer, pH 7.4, pig liver esterase in phosphate buffer, no plasma protein.
[3] abbreviates: pig, pig liver esterase in human plasma protein solution.

Nine molecules from patent publication US20120178738A1, “DIBENZO [B,F] [1,4]OXAZAPINE COMPOUNDS” (ARYX THERAPEUTICS, INC., priority 2007, published 2012) can be followed below.

Where only a bound is given, the exact number is not on record here.

T2 sequence (P20309 whole entry): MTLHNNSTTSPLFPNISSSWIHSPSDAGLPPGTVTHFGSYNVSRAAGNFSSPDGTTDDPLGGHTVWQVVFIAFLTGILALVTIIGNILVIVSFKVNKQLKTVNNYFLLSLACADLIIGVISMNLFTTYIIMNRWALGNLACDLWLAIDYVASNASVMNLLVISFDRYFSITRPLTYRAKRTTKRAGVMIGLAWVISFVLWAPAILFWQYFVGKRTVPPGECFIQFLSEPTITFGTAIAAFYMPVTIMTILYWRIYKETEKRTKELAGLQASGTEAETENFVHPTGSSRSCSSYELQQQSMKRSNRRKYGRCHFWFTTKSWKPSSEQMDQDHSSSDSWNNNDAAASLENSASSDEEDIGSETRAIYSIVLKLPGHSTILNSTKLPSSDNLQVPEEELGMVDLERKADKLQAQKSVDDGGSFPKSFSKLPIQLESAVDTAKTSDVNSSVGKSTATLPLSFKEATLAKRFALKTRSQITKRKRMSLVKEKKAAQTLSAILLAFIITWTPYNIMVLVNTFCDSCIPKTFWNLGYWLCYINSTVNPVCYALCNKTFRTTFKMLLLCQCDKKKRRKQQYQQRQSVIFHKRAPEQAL
T3 sequence (P34969 whole entry): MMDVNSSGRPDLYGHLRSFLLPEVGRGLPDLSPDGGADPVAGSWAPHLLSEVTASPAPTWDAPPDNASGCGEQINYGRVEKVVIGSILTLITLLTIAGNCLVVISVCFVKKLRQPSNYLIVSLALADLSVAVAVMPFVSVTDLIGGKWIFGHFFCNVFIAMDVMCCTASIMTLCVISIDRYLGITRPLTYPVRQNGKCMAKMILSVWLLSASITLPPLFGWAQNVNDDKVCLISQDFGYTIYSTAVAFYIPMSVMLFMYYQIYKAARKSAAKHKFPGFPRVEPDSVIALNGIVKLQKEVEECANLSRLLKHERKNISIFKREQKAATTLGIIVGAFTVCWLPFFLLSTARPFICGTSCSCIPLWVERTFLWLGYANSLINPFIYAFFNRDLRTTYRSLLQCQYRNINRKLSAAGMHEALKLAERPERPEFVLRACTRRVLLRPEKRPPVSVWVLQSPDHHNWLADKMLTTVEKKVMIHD

As for `CCOC(=O)CC1CN(C2=Nc3cc(Cl)ccc3Oc3ccccc32)CCN1` (centres unmarked) [A, (E)-ethyl 2-(4-(8-chlorodibenzo[b,f][1,4]oxazepin-11-yl)piperazin-2-yl)acetate], the Ki at human 5HT2C receptors was 10 to 97.7 nM; at human M3 receptors it was over 10000 nM. In addition, the “HLMs Enzyme” value in data set [1] is “Esterase”. The half-life in data set [1] amounted to 30 min. Further, the half-life at 4.9 µM was under 5 min in the data set on pig liver esterase (setting [2]) and 15 min with pig liver esterase (setting [3]).
In the case of `O=C(C[C@H]1CN(C2=Nc3cc(Cl)ccc3Oc3ccccc32)CCN1)OC1CCCC1` [DR, (S,E)-cyclopentyl 2-(4-(8-chlorodibenzo[b,f][1,4]oxazepin-11-yl)piperazin-2-yl)acetate], the Ki on human 5HT2C receptors was 10 to 97.7 nM; at human M3 receptors it was over 10000 nM; on human 5HT7 receptors it was 1580 to 3890 nM. Also, in data set [1], the “HLMs Enzyme” value is “Esterase”. Moreover, the half-life in data set [1] was 30 min. In addition, the results for the half-life at 4.9 µM in the data set with pig liver esterase (setting [2]) and in the data set with pig liver esterase (setting [3]) were under 5 min and 15 min, respectively.
Turning to `O=C(C[C@H]1CN(C2=Nc3cc(Cl)ccc3Oc3ccccc32)CCN1)OC1CCOCC1` [DV, (S,E)-tetrahydro-2H-pyran-4-yl 2-(4-(8-chlorodibenzo[b,f][1,4]oxazepin-11-yl)piperazin-2-yl)acetate], the Ki was 10 to 97.7 nM at human 5HT2C receptors, over 10000 nM on human M3 receptors and 1580 to 3890 nM on human 5HT7 receptors. Also, the “HLMs Enzyme” value in data set [1] is reported as “Esterase”. For the same molecule, the half-life in data set [1] was 60 min. Moreover, the half-life at 4.9 µM with pig liver esterase (setting [2]) was under 5 min; in the data set on pig liver esterase (setting [3]) it was 15 min.
With `O=C(C[C@H]1CN(C2=Nc3cc(Cl)ccc3Oc3ccccc32)CCN1)O[C@H]1CCOC1` [EQ, (S)-tetrahydrofuran-3-yl 2-((S)-4-((E)-8-chlorodibenzo[b,f][1,4]oxazepin-11-yl)piperazin-2-yl)acetate], in data set [1], the “HLMs Enzyme” value is “Esterase” and the half-life worked out at 15 min. For the same molecule, the half-life at 4.9 µM in the data set on pig liver esterase (setting [2]) is 5 min. Moreover, the half-life at 4.9 µM in the data set with pig liver esterase (setting [3]) was 30 min.
For the molecule `CCOC(=O)C[C@H]1CN(C2=Nc3cc(Cl)ccc3Oc3ccccc32)CCN1CCC(C)C` [ER, (S,E)-ethyl 2-(4-(8-chlorodibenzo[b,f][1,4]oxazepin-11-yl)-1-isopentylpiperazin-2-yl)acetate], the “HLMs Enzyme” value in data set [1] is given as “Esterase”. In data set [1], the half-life was 5 min. For the same molecule, the values for the half-life at 4.9 µM in the data set on pig liver esterase (setting [2]) and in the data set with pig liver esterase (setting [3]) were under 5 min and 60 min, respectively.
As for `CN1CCN(C2=Nc3cc(Cl)ccc3Oc3ccccc32)C[C@@H]1CC(=O)NCC(F)(F)C(F)(F)F` [EU, (S,E)-2-(4-(8-chlorodibenzo[b,f][1,4]oxazepin-11-yl)-1-methylpiperazin-2-yl)-N-(2,2,3,3,3-pentafluoropropyl)acetamide], the half-life in data set [1] was determined as 60 min. In addition, the “Pig Liver Esterase (t1/2 min.) (+) plasma” value in the data set with pig liver esterase (pig liver esterase in human plasma protein solution) is “Stable”. The “Pig Liver Esterase (t1/2 min.) (−) plasma” value with pig liver esterase (pig liver esterase in phosphate buffer, no plasma protein) is listed as “Stable”.
For the molecule `CCOC(=O)CC1CN(C2=Nc3ccc(F)cc3Oc3ccccc32)CCN1` (centres unmarked) [J, (E)-ethyl 2-(4-(7-fluorodibenzo[b,f][1,4]oxazepin-11-yl)piperazin-2-yl)acetate], the Ki at human 5HT2C receptors is 100 to 977 nM; at human M3 receptors it was over 10000 nM. The “HLMs Enzyme” value in data set [1] is on record as “Esterase”. Also, the half-life in data set [1] turned out to be 10 min. Further, the half-life at 4.9 µM with pig liver esterase (setting [2]) was under 5 min; in the data set with pig liver esterase (setting [3]), 15 min.
Consider `CC(C)OC(=O)CC1CN(C2=Nc3cc(Cl)ccc3Oc3ccccc32)CCN1` (centres unmarked) [L, (E)-isopropyl 2-(4-(8-chlorodibenzo[b,f][1,4]oxazepin-11-yl)piperazin-2-yl)acetate], for which the figures for the Ki on human 5HT2C receptors and at human M3 receptors were 10 to 97.7 nM and over 10000 nM, respectively. In addition, the half-life in data set [1] turned out to be 30 min. Besides, the results for the half-life at 4.9 µM with pig liver esterase (setting [2]) and in the data set on pig liver esterase (setting [3]) were under 5 min and 30 min, respectively.
As to `CC(C)OC(=O)CC1CN(C2=Nc3ccc(F)cc3Oc3ccccc32)CCN1` (centres unmarked) [M, (E)-isopropyl 2-(4-(7-fluorodibenzo[b,f][1,4]oxazepin-11-yl)piperazin-2-yl)acetate], the values for the Ki at human 5HT2C receptors and on human M3 receptors were 100 to 977 nM and over 10000 nM, respectively. Besides, the half-life in data set [1] was found to be 30 min. Moreover, the half-life at 4.9 µM is under 5 min in the data set on pig liver esterase (setting [2]) and 15 min in the data set on pig liver esterase (setting [3]).
